# Reference: patent US8952024B2, “Herbicidal pyrimidone derivatives” (E I du Pont de Nemours and Company, priority 2009, dated 2015)
# Key:
# Assay type in all cases: in vivo
# [1] = system: Italian ryegrass (Lolium multiflorum); assay: Test B pre-/postemergence plant response; details: for Ryegrass, Italian plant response rating: 0 to 100 scale
# In short: (§1)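 Visual injury, 0–100 scale (100 = complete control), rated against controls after 13 to 15 days in greenhouse. Pre-emergence: seeds in loam/sand soil, treated at planting. Post-emergence: 1- to 4-leaf plants (2 to 18 cm) in peat/vermiculite medium. Compounds formulated in non-phytotoxic solvent with surfactant.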
# [2] = system: bermudagrass (Cynodon dactylon); assay: Test B pre-/postemergence plant response; details: for Bermudagrass plant response rating: 0 to 100 scale, 0 no effect
# In short: as §1
# [3] = system: galium (catchweed bedstraw, Galium aparine); assay: Test B pre-/postemergence plant response; details: Preemergence; for Galium plant response rating: 250 g ai/ha, 0 to 100 scale
# In short: as §1
# [4] = system: lambsquarters (Chenopodium album); assay: Test B pre-/postemergence plant response; details: for Lambsquarters plant response rating: 0 to 100 scale
# In short: as §1
# [5] = system: nightshade (eastern black nightshade, Solanum ptycanthum); assay: Test B pre-/postemergence plant response; details: Preemergence; for Nightshade plant response rating: 250 g ai/ha, 0 to 100 scale
# In short: as §1
# [6] = system: pigweed (Amaranthus retroflexus); assay: Test B pre-/postemergence plant response; details: for Pigweed plant response rating: 0 to 100 scale
# In short: as §1
# [7] = system: ragweed (common ragweed, Ambrosia elatior); assay: Test B pre-/postemergence plant response; details: for Ragweed plant response rating: 0 to 100 scale
# In short: as §1
# [8] = system: sunflower (common oilseed sunflower, Helianthus annuus); assay: Test B pre-/postemergence plant response; details: Preemergence; for Sunflower plant response rating: 250 g ai/ha, 0 to 100 scale
# In short: as §1
# [9] = system: wheat (Triticum aestivum); assay: Test B pre-/postemergence plant response; details: for Wheat plant response rating: 0 to 100 scale
# In short: as §1
# [10] = system: canarygrass (Phalaris minor); assay: Test B postemergence plant response; details: Postemergence
# In short: (§2)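 Plants at the 1- to 4-leaf stage (2 to 18 cm tall), grown in pots of peat moss/vermiculite medium with wetting agent and starter nutrients, received postemergence applications of test chemicals. After 13 to 15 days in a greenhouse, injury was rated visually against untreated controls on a 0 (no effect) to 100 (complete control) scale.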
# [11] = system: chickweed (Stellaria media); assay: Test B postemergence plant response; details: Postemergence
# In short: as §2
# [12] = system: windgrass (Apera spica-venti); assay: Test B postemergence plant response; details: Postemergence
# In short: as §2
# [13] = system: winter barley (Hordeum vulgare); assay: Test B postemergence plant response; details: Postemergence
# In short: as §2
# [14] = Postemergence, 31 g ai/ha, 0 to 100 scale (0 no effect, 100 complete control)
# [15] = Postemergence, 250 g ai/ha, scale 0 to 100 (0 no effect, 100 complete control), 13 to 15 days
# [16] = Postemergence, 62 g ai/ha, scale 0 to 100 (0 no effect, 100 complete control)
# [17] = Preemergence, 31 g ai/ha, scale 0 to 100 (0 no effect, 100 complete control)
# [18] = Preemergence, 62 g ai/ha, scale 0 to 100, 0 no effect, 100 complete control
# [19] = Preemergence, 125 g ai/ha, scale 0 to 100, 0 no effect, 100 complete control
# [20] = Postemergence, 125 g ai/ha, scale 0 to 100 (0 no effect, 100 complete control)
# [21] = Preemergence, 250 g ai/ha, 100 complete control
# [22] = 31 g ai/ha, scale 0 to 100 (0 no effect, 100 complete control)
# [23] = 62 g ai/ha, scale 0 to 100, 0 no effect, 100 complete control
# [24] = 125 g ai/ha, scale 0 to 100, 0 no effect, 100 complete control
# [25] = 31 g ai/ha, 0 to 100 scale (0 no effect, 100 complete control)
# [26] = 125 g ai/ha, scale 0 to 100 (0 no effect, 100 complete control)
# [27] = 250 g ai/ha, scale 0 to 100 (0 no effect, 100 complete control), 13 to 15 days
# [28] = 62 g ai/ha, scale 0 to 100 (0 no effect, 100 complete control)
structure (smiles),measurement,setting,value
CCCc1ncc(C(=O)C2=C(O)CCCC2=O)c(=O)n1-c1ccccc1 [Compound 217],"Plant response rating, Ryegrass, Italian",[1]; [14],0
same,"Plant response rating, Ryegrass, Italian",[1]; [15],40
same,"Plant response rating, Ryegrass, Italian",[1]; [16],30
same,"Plant response rating, Ryegrass, Italian",[1]; [17],0
same,"Plant response rating, Ryegrass, Italian",[1]; [18],0
same,"Plant response rating, Ryegrass, Italian",[1]; [19],5
same,"Ryegrass, Italian plant response rating","[1]; Preemergence, 250 g ai/ha",10
same,"Plant response rating, Bermudagrass",[2]; [14],70
same,"Plant response rating, Bermudagrass",[2]; [20],98
same,"Plant response rating, Bermudagrass",[2]; [15],100
same,"Plant response rating, Bermudagrass",[2]; [16],85
same,"Plant response rating, Bermudagrass",[2]; [17],98
same,"Plant response rating, Bermudagrass",[2]; [18],100
same,"Plant response rating, Bermudagrass",[2]; [19],100
same,Bermudagrass plant response rating,[2]; [21],100
same,"Plant response rating, Galium",[3]; [22],0
same,"Plant response rating, Galium",[3]; [23],10
same,"Plant response rating, Galium",[3]; [24],70
same,Galium plant response rating,[3],90
same,"Plant response rating, Lambsquarters",[4]; [14],90
same,"Plant response rating, Lambsquarters",[4]; [20],100
same,"Plant response rating, Lambsquarters",[4]; [15],100
same,"Plant response rating, Lambsquarters",[4]; [16],100
same,"Plant response rating, Lambsquarters",[4]; [17],95
same,"Plant response rating, Lambsquarters",[4]; [18],100
same,"Plant response rating, Lambsquarters",[4]; [19],100
same,Lambsquarters plant response rating,"[4]; Preemergence, 250 g ai/ha",100
same,"Plant response rating, Nightshade",[5]; [22],95
same,"Plant response rating, Nightshade",[5]; [23],100
same,"Plant response rating, Nightshade",[5]; [24],100
same,Nightshade plant response rating,[5],100
same,"Plant response rating, Pigweed",[6]; [14],85
same,"Plant response rating, Pigweed",[6]; [15],100
same,"Plant response rating, Pigweed",[6]; [16],100
same,"Plant response rating, Pigweed",[6]; [17],95
same,"Plant response rating, Pigweed",[6]; [18],100
same,"Plant response rating, Pigweed",[6]; [19],100
same,Pigweed plant response rating,"[6]; Preemergence, 250 g ai/ha",100
same,"Plant response rating, Ragweed",[7]; [14],80
same,"Plant response rating, Ragweed",[7]; [15],98
same,"Plant response rating, Ragweed",[7]; [16],80
same,"Plant response rating, Ragweed",[7]; [17],60
same,"Plant response rating, Ragweed",[7]; [18],60
same,"Plant response rating, Ragweed",[7]; [19],90
same,Ragweed plant response rating,"[7]; Preemergence, 250 g ai/ha",95
same,"Plant response rating, Sunflower",[8]; [22],70
same,"Plant response rating, Sunflower",[8]; [23],75
same,"Plant response rating, Sunflower",[8]; [24],85
same,Sunflower plant response rating,[8],85
same,"Plant response rating, Wheat",[9]; [14],30
same,"Plant response rating, Wheat",[9]; [15],50
same,"Plant response rating, Wheat",[9]; [16],45
same,"Plant response rating, Wheat",[9]; [17],0
same,"Plant response rating, Wheat",[9]; [18],0
same,"Plant response rating, Wheat",[9]; [19],0
same,Wheat plant response rating,"[9]; Preemergence, 250 g ai/ha",0
same,"Plant response rating, Canarygrass",[10]; [25],0
same,"Plant response rating, Canarygrass",[10]; [26],20
same,"Plant response rating, Canarygrass",[10]; [27],20
same,"Plant response rating, Canarygrass",[10]; [28],20
same,"Plant response rating, Chickweed",[11]; [25],75
same,"Plant response rating, Chickweed",[11]; [26],100
same,"Plant response rating, Chickweed",[11]; [27],100
same,"Plant response rating, Chickweed",[11]; [28],95
same,"Plant response rating, Windgrass",[12]; [25],50
same,"Plant response rating, Windgrass",[12]; [27],85
same,"Plant response rating, Windgrass",[12]; [28],50
same,"Plant response rating, Barley",[13]; [25],0
same,"Plant response rating, Barley",[13]; [26],10
same,"Plant response rating, Barley",[13]; [27],10
same,"Plant response rating, Barley",[13]; [28],5
CCc1cccc(-n2c(-c3ccccc3)ncc(C(=O)C3=C(O)CCCC3=O)c2=O)c1 [Compound 220],"Plant response rating, Ryegrass, Italian",[1]; [14],5
same,"Plant response rating, Ryegrass, Italian",[1]; [15],60
same,"Plant response rating, Ryegrass, Italian",[1]; [16],5
same,"Plant response rating, Ryegrass, Italian",[1]; [17],0
same,"Plant response rating, Ryegrass, Italian",[1]; [18],0
same,"Plant response rating, Ryegrass, Italian",[1]; [19],0
same,"Ryegrass, Italian plant response rating","[1]; Preemergence, 250 g ai/ha",0
same,"Plant response rating, Bermudagrass",[2]; [14],80
same,"Plant response rating, Bermudagrass",[2]; [20],98
same,"Plant response rating, Bermudagrass",[2]; [15],100
same,"Plant response rating, Bermudagrass",[2]; [16],95
same,"Plant response rating, Bermudagrass",[2]; [17],80
same,"Plant response rating, Bermudagrass",[2]; [18],98
same,"Plant response rating, Bermudagrass",[2]; [19],98
same,Bermudagrass plant response rating,[2]; [21],100
same,"Plant response rating, Galium",[3]; [22],0
same,"Plant response rating, Galium",[3]; [23],50
same,"Plant response rating, Galium",[3]; [24],90
same,Galium plant response rating,[3],100
same,"Plant response rating, Lambsquarters",[4]; [14],100
same,"Plant response rating, Lambsquarters",[4]; [20],100
same,"Plant response rating, Lambsquarters",[4]; [15],100
same,"Plant response rating, Lambsquarters",[4]; [16],100
same,"Plant response rating, Lambsquarters",[4]; [17],100
same,"Plant response rating, Lambsquarters",[4]; [18],100
same,"Plant response rating, Lambsquarters",[4]; [19],100
same,Lambsquarters plant response rating,"[4]; Preemergence, 250 g ai/ha",100
same,"Plant response rating, Nightshade",[5]; [22],65
same,"Plant response rating, Nightshade",[5]; [23],90
same,"Plant response rating, Nightshade",[5]; [24],98
same,Nightshade plant response rating,[5],100
same,"Plant response rating, Pigweed",[6]; [14],95
same,"Plant response rating, Pigweed",[6]; [15],100
same,"Plant response rating, Pigweed",[6]; [16],100
same,"Plant response rating, Pigweed",[6]; [17],100
same,"Plant response rating, Pigweed",[6]; [18],100
same,"Plant response rating, Pigweed",[6]; [19],100
same,Pigweed plant response rating,"[6]; Preemergence, 250 g ai/ha",100
same,"Plant response rating, Ragweed",[7]; [14],90
same,"Plant response rating, Ragweed",[7]; [15],98
same,"Plant response rating, Ragweed",[7]; [16],95
same,"Plant response rating, Ragweed",[7]; [17],15
same,"Plant response rating, Ragweed",[7]; [18],60
same,"Plant response rating, Ragweed",[7]; [19],80
same,Ragweed plant response rating,"[7]; Preemergence, 250 g ai/ha",95
same,"Plant response rating, Sunflower",[8]; [22],0
same,"Plant response rating, Sunflower",[8]; [23],45
same,"Plant response rating, Sunflower",[8]; [24],70
same,Sunflower plant response rating,[8],90
same,"Plant response rating, Wheat",[9]; [14],0
same,"Plant response rating, Wheat",[9]; [15],15
same,"Plant response rating, Wheat",[9]; [16],0
same,"Plant response rating, Wheat",[9]; [17],0
same,"Plant response rating, Wheat",[9]; [18],0
same,"Plant response rating, Wheat",[9]; [19],0
same,Wheat plant response rating,"[9]; Preemergence, 250 g ai/ha",5
same,"Plant response rating, Canarygrass",[10]; [25],10
same,"Plant response rating, Canarygrass",[10]; [26],10
same,"Plant response rating, Canarygrass",[10]; [27],30
same,"Plant response rating, Canarygrass",[10]; [28],10
same,"Plant response rating, Chickweed",[11]; [25],95
same,"Plant response rating, Chickweed",[11]; [26],98
same,"Plant response rating, Chickweed",[11]; [27],100
same,"Plant response rating, Chickweed",[11]; [28],95
same,"Plant response rating, Windgrass",[12]; [25],5
same,"Plant response rating, Windgrass",[12]; [27],60
same,"Plant response rating, Windgrass",[12]; [28],40
same,"Plant response rating, Barley",[13]; [25],10
same,"Plant response rating, Barley",[13]; [26],10
same,"Plant response rating, Barley",[13]; [27],15
same,"Plant response rating, Barley",[13]; [28],10
